One data set deals with OVCAR-4. The data set is described as follows: Cell viability (CellTiterGlo), OVCAR-4. The conditions noted are these: Homo sapiens. It is filed as cell-based. On the procedure: (§1) Candidate compounds are tested in 384-well plates for effects on cell viability in the presence or absence of an appropriate conventional anticancer drug. Cell viability is indirectly monitored in the first instance using CellTiterGlo (Promega Corp., Madison, WI) (Table D). To determine if cell death is apoptotic, the induction of caspase activity is assessed utilizing the CaspaseGlo Assay system (Promega Corp., Madison, WI) (Table E). Cell viability is monitored 1 to 3 days after addition of compounds and conventional drugs. […] A compound of any of the formulae as disclosed herein is evaluated in combination with said anticancer drug to determine which ML-IAP antagonist can sensitize most efficaciously. Select candidate compounds are tested in 14 point drug dose response (DDR) curves in a 384-well format in order to establish potency in combination with decreasing concentrations of lung cancer relevant drug regimens. Furthermore, checker-board titrations of a conventional drug and the candidate molecules are performed to search for synergy (using ISOBOLOGRAM analysis). Compounds and combinations as described herein are also tested for cytotoxicity against normal human cells (e.g. primary fibroblasts, lymphocytes, hepatocytes, epithelial and endothelial cells) using known methods.
(§2) Cell viability was evaluated following treatment with a compound as disclosed in Table D. Viability of cancer cells following treatment is indicated according to the following legend: […]
In general terms: ATP-based viability assays read luminescence as a measure of living cells.

For another data set, the target named is XIAP-BIR3 (Homo sapiens (Human), UniProt P98170). Nature of the data set: Fluorescence polarization (FP) assay, inhibition of SMAC peptide binding. The method, then: Compounds of the present disclosure were evaluated for potency and selectivity in a fluorescence polarization (FP) assay that measures inhibition of SMAC peptide binding to ML-IAP. To measure SMAC peptide binding, multi-well plate format FP assays based on the ability of SMAC peptides to bind the BIR domains of several IAPs are used to generate IC50 and Ki values for analogues. The FP assays utilize plasmid constructs encoding various full length IAPs or fragments for expression as either GST or His6-fusion proteins in bacteria. Compounds are evaluated for activity against several members of the IAP family, including the BIR domains of XIAP, cIAP1 and cIAP2 in order to generate selectivity profiles of the compounds disclosed herein. These assays also enable the identification and characterization of potency profiles of ML-IAP binding.
Sequence of XIAP-BIR3 (P98170 241-356): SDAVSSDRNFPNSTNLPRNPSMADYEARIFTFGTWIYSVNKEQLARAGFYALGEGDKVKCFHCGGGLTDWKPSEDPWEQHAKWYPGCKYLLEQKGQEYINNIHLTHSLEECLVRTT
Activity of the compounds are indicated according to the following legend: […]
Background: Polarisation of emitted light reports the rotation of a fluorescent probe.

In another data set the test system is Caspase 3/7 (SKOV-3). The data set is described as follows: Induction of caspase 3/7 activity (CaspaseGlo), SKOV-3. Type of data set: cell-based. The following applies: Homo sapiens, SK-OV-3. The method, then:
as §1
(§3) The induction of caspase activities was tested with a compound as disclosed in Table E. The activities are indicated according to the following legend: […]

Another data set has as its system Caspase 3/7 (OVCAR-4). The data set is described as follows: Induction of caspase 3/7 activity (CaspaseGlo), OVCAR-4. It is filed as cell-based. The conditions noted are these: Homo sapiens. The method, then: as §1, §3
Data set [1] can be described thus: In vivo PK plasma exposure in mice. The method, then:
Pharmacokinetic (PK) studies are performed in vivo in mice for compounds as described herein. Standard formulations are evaluated, including hydroxypropyl methylcellulose, carboxymethylcellulose, and polyethylene glycol. For intravenous studies, compounds are administered via indwelling catheters in jugular vein and samples collected from the carotid artery. These experiments provide basic pharmacokinetic parameters including peak plasma concentration (Cmax), bioavailability (% F), exposure (AUC), half-life (t½), clearance (CL), volume of distribution (Vd), and brain levels. To measure bioavailability, a compound as described herein is administered to three animals/group, both orally (10 mg/kg) and intravenously (1 mg/kg). Intraperitoneally administration is also assessed in order to determine both brain and plasma levels of compounds.
The compounds described herein were tested in vivo in mice to measure PK plasma exposure as shown in Table F. The PK plasma values are indicated according to the following legend: […]

For the next data set, the system named is H460 lung cancer cells. The data set is described as follows: Sensitization of lung cancer cells to standard of care treatment (vinorelbine). It is filed as cell-based. The following applies: combination with vinorelbine, FIG. 1. On the procedure: In order to assess the role of ML-IAP antagonists in cancer treatment, H460 lung cancer cells are treated with a standard of care treatment (e.g., vinorelbine) alone or in combination with a selective ML-IAP antagonist. […] The leftward shift in the dose dependent response (DDR) curve indicates a resensitization of lung cancer cells to the anti-cancer agent. Furthermore, TNF induction is absent following treatment with a compound described herein in breast cancer MDA-MB-231 cells. This effect provides a substantial advantage clinically as it avoids an inappropriate inflammatory response.

The test system of a further data set is SKOV-3. The data set is described as follows: Cell viability (CellTiterGlo), SKOV-3. Type of data set: cell-based. The conditions noted are these: Homo sapiens, SK-OV-3. The method, then: as §1, §2
For another data set, the system named is Caspase 9 (SKOV-3). Nature of the data set: Induction of caspase 9 activity (CaspaseGlo), SKOV-3. Type of data set: cell-based. The following applies: Homo sapiens, SK-OV-3. On the procedure:
as §1, §3

The subject of a further data set is SKOV-3 cancer cell lines. Nature of the data set: SKOV-3 cell viability after treatment with 10 μM test compound. Type of data set: cell-based. The conditions noted are these: Homo sapiens, SK-OV-3, 10 micromolar test compound; SKOV-3 cells. The method, then:
SKOV-3 cancer cell lines were treated with a test compound, either as a pure enantiomer or a mixture of stereoisomers, at a concentration of 10 μM. Cell viability was evaluated following treatment with a compound as disclosed in Table B. Viability of cancer cells following treatment is indicated according to the following legend:
A=0-25% viability B=26-50% viability C=>50% viability

The structures appear in SMILES notation. Counter-ions that a name gives are not always drawn.

A word on the IC50: it is the midpoint of a concentration-inhibition curve. A word on the Ki: it is the dissociation constant of the complex between target and ligand, obtained from inhibition or displacement. Read a low Ki as tighter binding. In general, EC50 refers to the concentration that produces a half-maximal response. By viability is commonly meant a read-out of living cells in per cent, often relative to untreated cells. A higher viability goes with less harm to the cells.

In the case of `CN[C@@H](C)C(=O)N[C@H]1CCS[C@H]2CC(C)(C)C(C(=O)N[C@@H]3CCCc4ccccc43)N2C1=O` (stereo partly drawn) [Compound A, (4S,9aS)-8,8-dimethyl-4-((S)-2-(methylamino)propanamido)-5-oxo-N—((R)-1,2,3,4-tetrahydronaphthalen-1-yl)octahydropyrrolo[2,1-b][1,3]thiazepine-7-carboxamide hydrochloride], the half-maximal inhibitory concentration (IC50) with OVCAR-4 and in the data set on SKOV-3 was 1 to 10 nM each time. At XIAP-BIR3, this molecule yielded an inhibitory constant (Ki) of 10 to 100 nM. In addition, the half-maximal effective concentration (EC50) in the data set on Caspase 3/7 (SKOV-3) was 1 to 10 nM; in the data set on Caspase 3/7 (OVCAR-4), 1 to 10 nM; in the data set on Caspase 9 (SKOV-3) it was less than 1 nM. Moreover, in data set [1], the “PK plasma exposure at 1 h (IP, 10 mg/kg)” value is listed as “iii (iii=500-1000 nM)”. In addition, in the data set on H460 lung cancer cells, the “sensitizing effect on lung cancer cells” value is “sensitizing effect”.

Regarding `CN[C@@H](C)C(=O)N[C@H]1CCOC2CC3(CCCC3)C(C(=O)N[C@@H]3CCCc4ccccc43)N2C1=O` (stereo partly drawn) [Compound 82, (4'S)-4′-((S)-2-(methylamino)propanamido)-5′-oxo-N—((R)-1,2,3,4-tetrahydronaphthalen-1-yl)hexahydro-7′H-spiro[cyclopentane-1,8′-pyrrolo[2,1-b][1,3]oxazepine]-7′-carboxamide hydrochloride], the half-inhibitory concentration (IC50) with OVCAR-4 and with SKOV-3 was 1 to 10 nM each time. The molecule also registered an inhibition constant (Ki) at XIAP-BIR3 of 10 to 100 nM. For the same molecule, the concentration for a half-maximal effect (EC50) in the data set with Caspase 3/7 (SKOV-3), in the data set with Caspase 3/7 (OVCAR-4) and with Caspase 9 (SKOV-3) was 1 to 10 nM throughout. Further, the “PK plasma exposure at 1 h (IP, 10 mg/kg)” value in data set [1] is “iv (iv=>1000 nM)”. Moreover, the viability at 10 µM in the data set on SKOV-3 cancer cell lines fell in the range of 0 to 25%.

The values are drawn from patent publication US20230295181A1, “INHIBITOR OF APOPTOSIS (IAP) PROTEIN ANTAGONISTS” (Sanford Burnham Prebys Medical Discovery Institute, priority 2020, published 2023).
